Like-named read-outs stand apart in the source and are kept apart here.
Columns and labels:
[1] = system: hiPSC-based cardiac organoids; conditions: for concentration at which cardiac organoids/tissue failed to differentiate (cardiac differentiation abolished) / organoid formation / concentration with no contractile functions (stopped beating): human; for organoid formation: 100 μM
[2] = system: zebrafish embryos; conditions: for proportion of embryos with normal (D-looped) heart looping: across / at higher concentrations; for embryos expressing the GFP transgene: Tg(my17:GFP)
[3] = system: cardiac organoids (cTnT positive cells); experiment: flow cytometry of cardiac differentiation efficiency (cTnT) of drug-treated organoids; type: cell-based, human; conditions: with increasing treatment concentration
Experimental: Cardiac organoids were dissociated using 0.25% Trypsin for 10-15 minutes. Cells were collected, centrifuged and washed with PBS. Cells were fixed and permeabilized with a mixture of 4% (vol/vol) paraformaldehyde and 0.2% (vol/vol) TritonX solution for 15 minutes. Cells were incubated with primary antibody cardiac troponin T (Thermofisher cat. no. MA5-12960) in a 1:250 dilution for 1 hour in PBS, and then incubated with AlexaFluor 546 secondary fluorophore for an additional hour. The cell suspension was washed, centrifuged and filtered through 35 μm mesh cell strainer. Flow cytometry was performed on the BDAccuriC6 at Flow Cytometry Core at Syracuse University.
Concentrations were chosen after evaluation of blood plasma concentrations reported for each drug from the FDA drug information database (accessdata.FDA.gov). Concentrations were chosen to be at or approximated by blood plasma concentrations, while accounting for drug solubility in water or DMSO, while also supplying a large range in order to detect potential toxicity. Drugs were diluted in the appropriate culture media at three concentrations each increasing by a factor of 10 with respective controls. […] Samples were terminated on Day 20 for motion tracking analysis and for fluorescence/confocal imaging to assess the developmental toxicity of specific drugs based on the organoid morphology and contractile physiology.

[4] = system: hiPSC-based cardiac organoids; experiment: cardiac developmental toxicity assay on hiPSC-derived cardiac organoids (differentiation, contractile behavior, 3D morphology)

| SMILES | FWHM [1] | beat rate [1] | height [1] | concentration at which cardiac organoids/tissue failed to differentiate (cardiac differentiation abolished) [1] | developmental toxicity (cardiac looping) ([2]; zebrafish, in vivo) | developmental toxicity on zebrafish embryonic heart development (cardiac looping) ([2]; zebrafish, in vivo) | organoid formation / 3D organoid morphology [1] | also measured |
| --- | --- | --- | --- | --- | --- | --- | --- | --- |
| CC1(C)S[C@@H]2[C@H](NC(=O)[C@H](N)c3ccc(O)cc3)C(=O)N2[C@H]1C(=O)O [Amoxicillin] | smaller | decreased | smaller | – | – | – | – | beat duration [1]: increased |
| C[C@H]1c2cccc(O)c2C(=O)C2=C(O)[C@]3(O)C(=O)C(C(N)=O)=C(O)[C@@H](N(C)C)[C@@H]3[C@@H](O)[C@@H]21 [Doxycycline] | Significant toxicity | Significant toxicity | Significant toxicity | 100 µM | severe developmental toxic effects | moderate toxicity | – | beat duration [1]: Significant toxicity; contraction velocity [1]: Significant toxicity; organoid formation [1]: failed to create 3D organoids |
| CN(C)CCOC(C)(c1ccccc1)c1ccccn1 (stereo not shown) [Doxylamine Succinate] | – | slower | – | – | – | – | no drug effects | percentage of cells expressing cTnT [3]: did not affect; effect on contractile functions (overall) [1]: prominent effects; proportion of embryos with normal (D-looped) heart looping ([2]; 48 hpf): considerable proportion |
| CC1=C(/C=C/C(C)=C/C=C/C(C)=C\C(=O)O)C(C)(C)CCC1 [Isotretinoin, 13-cis-retinoic acid] | – | – | – | 1 µM | severe developmental toxic effects | severe defects | large organoids | embryos expressing the GFP transgene ([2]; zebrafish, in vivo, 48 hpf): 0% |
| O=C([O-])[O-].[Li+].[Li+] [Lithium Carbonate] | – | – | – | – | – | – | – | developmental toxicity (cardiac looping) ([2]; 48 hpf, all concentrations): severe developmental toxic effects; developmental toxicity on zebrafish embryonic heart development (cardiac looping) ([2]; 48 hpf, concentration not specified): moderate toxicity; organoid formation / 3D organoid morphology ([4]; all tested concentrations or not specified, vs controls): mild toxicity; effect on cardiac differentiation ([4]; concentration not specified): slight reduction; effect on contractile functions (overall) ([4]; concentration not specified, listed as lithium): did not affect; effect on contractile functions (overall) ([4]; concentration not specified, listed as lithium carbonate): no significant toxicity effects; FWHM ([4]; high / higher concentrations (thalidomide in b100: 100 μM)): moderate toxicity |
| O=C1NC(=O)C(c2ccccc2)(c2ccccc2)N1 [Phenytoin] | smaller | – | smaller | – | mild embryotoxic effects | mild developmental toxic effect | smaller cardiac organoids than controls, but still maintained structural integrity | concentration with no contractile functions (stopped beating) [1]: 100 µM |
| CO[C@H]1/C=C/O[C@@]2(C)Oc3c(C)c(O)c4c(O)c(c(/C=N/N5CCN(C)CC5)c(O)c4c3C2=O)NC(=O)/C(C)=C\C=C\[C@H](C)[C@H](O)[C@@H](C)[C@@H](O)[C@@H](C)[C@H](OC(C)=O)[C@@H]1C [Rifampicin] | toxicity | toxicity | toxicity | 100 µM | mild embryotoxic effects | mild developmental toxic effect | – | contraction velocity [1]: toxicity; organoid formation [1]: severe developmental toxicity at a high concentration (100 μM) with no organoid formation |
| O=C1CCC(N2C(=O)c3ccccc3C2=O)C(=O)N1 (stereo not shown) [Thalidomide] | – | high variability | – | – | very mild toxicity level | not as significant as what was observed in the organoid model | abnormal cardiac organoids | percentage of cells expressing cTnT [3]: considerable reduction; area ratio [1]: decrease; area ratio of cardiac muscle coverage [1]: less cardiac tissue coverage; proportion of embryos with normal (D-looped) heart looping ([2]; 48 hpf): did not notably decrease |
| CC1=C(/C=C/C(C)=C/C=C/C(C)=C/C(=O)O)C(C)(C)CCC1 [Tretinoin, all-trans-retinoic acid] | – | – | – | 10 µM | severe developmental toxic effects | severe defects | – | effect on cardiac differentiation [1]: abolished all cardiac differentiation; concentration with no contractile functions (stopped beating) [1]: 10 µM; embryos expressing the GFP transgene ([2]; zebrafish, in vivo, 48 hpf): 0% |
